Laboratory results as given in US12091683B2, “Method for producing platelets, method for producing platelet product, and method for producing blood product” (MEGAKARYON CORPORATION, priority 2017, dated 2024).

Columns and labels:
[1] = system: platelets produced from immortalized megakaryocyte cell lines (SeV2-MKCL); assay: Bioactivity of platelets produced, MFIs of CD62p and PAC-1 by flow cytometer; format: cell-based, human
Description: The bioactivity of platelets obtained in Example 1(2) was measured using a flow cytometer. Specifically, 900 μL of diluent was added to a 1.5-mL microtube, and 100 μL of culture solution after platelet production was added and mixed. Then, 200 μL of obtained solution was poured into a FACS tube, stained by adding the labeled antibody shown below, and the MFIs of CD62p and PAC-1 in platelets were analyzed using the flow cytometer. The same analysis was also performed using the flow cytometer in NC, and then the increase percentage of the MFIs of CD62p and PAC-1 in the respective samples were calculated with reference to the MFIs of CD62p and PAC-1 in NC.
FIGS. 2A and 2B are graphs each showing the increase percentage of MFIs of CD62p and PAC-1. […] In addition, the expression levels of CD62p and PAC-1 were increased in a concentration-dependent manner.
The increase percentages of MFIs of CD62p and PAC-1 were calculated in the same manner as in Example 1(3) except that platelet was produced using a platelet production medium being added with cysteine at a predetermined concentration (1, 5, or 10 mmol/L) instead of glycine. The platelet production medium contains 0.6 to 0.8 mmol/L cysteine. Therefore, the concentration of the cysteine in the platelet production medium after being added with cysteine are about 2 to about 11 mmol/L. As a control, the increase percentage of MFIs of CD62p and PAC-1 was calculated in the same manner except that no cysteine was added.

[2] = system: platelets produced from immortalized megakaryocyte cell lines (SeV2-MKCL); settings: 10 mmol/L glycine and 20 U/mL heparin added; dissemination density ×1, ×2, ×3, ×4, ×8; compared with controls; FIG. 3
Description: In addition, the deterioration state of platelets obtained was evaluated based on the positive rate of Annexin V. Specifically, in measurement of the Annexin V positive rate in platelets, 100 μL of the culture solution after platelet production was poured into a FACS tube, and the solution was stained by adding the following labeled antibody and protein, diluted to 5 times with an Annexin V binding buffer (BD Biosciences) immediately before flow cytometer analysis, and then subjected to analysis.
1.0 μL anti-CD41a antibody APC label (Bio Legend 303710)
1.0 μL anti-CD42b antibody PE label (Bio Legend 303906)
5 μL Annexin V FITC label (BD Biosciences 556419)

[3] = system: immortalized megakaryocyte cell line from human iPS cells (NIH8); settings: 4.0×10^5 (×4) or 6.0×10^5 cells/mL (×6), 5 days, glycine added, compared with control in high-density culture, FIG. 6B
Description: (§1) Immortalized megakaryocyte cell lines were induced in the same manner as in Examples 1(1-1) to (1-6) except that human iPS cells (NIH5 and NIH8) were used instead of the human iPS cells (TKDN SeV2). As to the obtained immortalized megakaryocyte cell line, the number of platelets was counted and the platelet concentration was calculated in the same manner as in Example 1(2) except that the cell dissemination density was set to 4.0×10^5 cells/mL (×4) or 6.0×10^5 cells/mL (×6) and the culture was performed for 5 days. As a control, the platelet concentration was calculated in the same manner except that the cell dissemination density was set to 1.0×10^5 cells/mL (×1), 4.0×10^5 cells/mL (×4), or 6.0×10^5 cells/mL (×6), and the glycine-non-added platelet production medium was used.
(§2) FIGS. 6A and 6B are graphs each showing the platelet concentration. […] In FIGS. 6A and 6B, the horizontal axis indicates the condition of cell dissemination density and glycine concentration, and the vertical axis indicates the platelet concentration.

[4] = system: immortalized megakaryocyte cell line from human iPS cells (NIH5); settings: 4.0×10^5 (×4) or 6.0×10^5 cells/mL (×6), 5 days, glycine added, compared with control in high-density culture, FIG. 6A
Description: as §1, §2

[5] = system: immortalized megakaryocyte cell lines (SeV2-MKCL)
Description: The forced expression was canceled by performing culturing in a medium not containing DOX. Specifically, the immortalized megakaryocyte cell lines (SeV2-MKCL) obtained using the method (1) were washed twice with PBS (−), and suspended in a following platelet producing medium. The cell dissemination density was set to 4.0×10^5 cells/mL (×4).
The platelet producing medium was obtained by adding the components listed below to a basal medium IMDM (concentration means final concentration).

[6] = system: immortalized megakaryocyte cell line from iPS cells induced from SeV2-MKCL; settings: high-density culture (×4), compared with control in high-density culture
Description: iPS cells were induced by introducing c-MYC, OCT3/4, SOX2, and KLF4 into immortalized megakaryocyte cell line (SeV2-MKCL) obtained in Example 1(1-6) by the Sendai virus vector according to the method described in WO 2010/134526. Next, immortalized megakaryocyte cell lines were induced in the same manner as in Examples 1(1-1) to (1-6) except that the induced iPS cells were used instead of the human iPS cells (TKDN SeV2). Further, as to the obtained immortalized megakaryocyte cell line, the number of platelets was counted and the platelet concentration was calculated in the same manner as in Example 1(2). Then, the P/M ratio was calculated based on the megakaryocyte cell density (dissemination density) at the start of production of platelets and the platelet concentration.

[7] = high-density culture (×4), added glycine 5, 10, 20, 40 mmol/L, compared to control without glycine, FIGS. 2A, 2B
[8] = high-density culture, added cysteine 1, 5 or 10 mmol/L, compared to control (NC) without cysteine, FIG. 4

Row | SMILES | expression level of CD62p (increase percentage of MFI) [1, 7] | expression level of PAC-1 (increase percentage of MFI) [1, 7] | deterioration of platelet (percentage of Annexin V-positive cells) [2] | number of platelets [2] | platelet concentration [3] | platelet concentration [4] | number of platelets ([5]; 4.0×10^5 cells/mL (×4), added glycine 1, 5, 10, 20 or 40 mmol/L, 6 days, compared with high-density culture using glycine-non-added medium, FIGS. 1A, 1B) | ability of megakaryocyte to produce platelets ([5]; glycine concentration at the start of production of platelets 11 to 31 mmol/L or 11 to 21 mmol/L, high-density culture (×4)) | ability of megakaryocyte to produce platelets (P/M ratio) ([6]; any glycine concentration, FIG. 5A) | platelet concentration ([6]; FIG. 5B) | expression level of CD62p (increase percentage of MFI) [1, 8] | expression level of PAC-1 (increase percentage of MFI) [1, 8]
1 | NCC(=O)O [glycine] | increased at all glycine concentrations | increased at all glycine concentrations | suppressed | increased | increased at any dissemination density | increased at any dissemination density | increased at all concentrations | further improved | improved | increased at any glycine concentration |  | 
2 | N[C@@H](CS)C(=O)O [cysteine] |  |  |  |  |  |  |  |  |  |  | increased at all cysteine concentrations | increased at all cysteine concentrations
